Laboratory results: US20260355357A1, “DIAGNOSTIC AGENTS AND USES THEREOF” (HADASIT MEDICAL RESEARCH SERVICES AND DEVELOPMENT LTD., priority 2023, published 2026)

Experiments:
[1] = system: human brain; details: in vivo; cited from earlier work
[2] = Biodistribution of deuterated 2-deoxy-D-glucose, 2H-NMR of tissue extracts, mice; type: in vivo, mouse; details: [D4]DDG bolus i.v., 43-45 mg/kg (non-labeled 2DG equivalent)
Experimental: (§1) Mice and rats, males and females at equal numbers, were intravenously injected with a bolus of varying doses of deuterated 2-deoxy-D-glucose (2-DG, DDG, with varying numbers and positions of deuteration). DDGs were provided by CortecNet, France. The injection was performed under sedation in all rats (18) and in 12 of 18 mice, after which the animals woke up within 1 minute. […] Further to euthanasia, the brain, liver, kidneys, heart, and muscle were excised and immediately placed in liquid nitrogen. The frozen tissue samples were kept at −80 °C until further processing.
(§2) Extraction of the water-soluble metabolites and the lipids was carried out using the dual-phase extraction procedure as described previously [Katz-Brull R, et al. Differential routing of choline in implanted breast cancer and normal organs. Article. Magnetic Resonance in Medicine. July 2001; 46(1):31-38. doi:10.1002/mrm.1157]. Briefly, a frozen sample is placed in 10 mL of ice-cold methanol containing 0.4 mM phenyl phosphonic acid for at least 1 hour. The tissue is then homogenized in ice-cold methanol using a tissue homogenizer. Equal volumes of chloroform and water are then added to the sample tube, and the mixture is vortexed and vigorously shaken. The samples are allowed to stand at 4 °C for at least 24 hours for phase separation. The methanol-water phase is aspirated, treated with Chelex to remove divalent ions, and then lyophilized for at least 24 hours. When the samples are dry (as powder), they are redissolved in 0.5 mL of double-distilled water and transferred to 5-mm NMR tubes for scanning. The samples are scanned in a 9.4 T NMR spectrometer.

[3] = Biodistribution of deuterated 2-deoxy-D-glucose, 2H-NMR of tissue extracts, rats; type: in vivo, rat; details: for concentration: [D4]DDG bolus i.v., 37-55 mg/kg (non-labeled 2DG equivalent)
Experimental: as §1, §2

[4] = Adverse effects after bolus intravenous injection of DDG, mice; type: in vivo, mouse; details: bolus i.v., 37 mg/kg to 248 mg/kg (mice and rats), awake up to 78 min
Experimental: as §1
(§3) The animals were observed awake for up to 78 min after the injection. The injection bolus was administered in less than 1 s and ranged from 0.1 mL for mice (ca. 25-40 g) to 0.6 mL for rats (ca. 120-160 g).

[5] = Adverse effects after bolus intravenous injection of DDG, rats; type: in vivo, rat; details: bolus i.v., 37 mg/kg to 248 mg/kg (mice and rats), awake up to 78 min
Experimental: as §1, §3

[6] = n=2, read-out: concentration in the heart

For `OC[C@H]1OC(O)[C@H](F)[C@@H](O)[C@@H]1O` (stereo partly drawn) [[18F]-fluoro-2-deoxy-D-glucose], the “accumulation in the human brain” value [1] is listed as “accumulates at very high levels in the human brain”.

In the case of `[2H]C([2H])(O)[C@H]1OC(O)C[C@@]([2H])(O)[C@]1([2H])O` (stereo partly drawn) [[D4]DDG, [3,4,6,6-D4]2-deoxy-D-glucose], the concentration ([2]; n=1, read-out: concentration in the kidneys) is reported as 1790 µM, the concentration [2, 6] is reported as 3140 µM and the concentration ([2]; n=2, read-out: concentration in the liver) is reported as 230 µM. For the same compound, the “2H-NMR signal in rat brain extract” value ([3]; FIG. 7, 45 mg/kg, awake 36 min, 9.4 T) was “due to the deuterons of [D4]DDG”, the “2H-NMR signal in rat brain extract” value ([3]; FIG. 7 legend, awake 30 min) was “the right signal (full arrow) is of deuterons of [3,4,6,6-D4]2-deoxy-D-glucose” and the concentration [3, 6] was 2700 µM. The concentration ([3]; n=6, read-out: concentration in the brain) was 1600 µM, the concentration ([3]; n=6, read-out: concentration in the muscle) was 80 µM and the adverse effects [4] was “no adverse effects”. For the same compound, the adverse effects [5] was “no adverse effects”.
